In patent US20250099528A1, “ORAL COMPOSITION” (Toyo Shinyaku Co., Ltd., priority 2023, published 2025):

System: Caco-2 cells
Test: Leucine permeability test using Caco-2 cells
Type: in vitro ADME, Human
Details: Caco-2 insert wells, luminal to basolateral side, culture two hours, L-leucine 0.131 mg/mL, HPLC
Protocol: To assess the action of promoting free amino acid absorption of a dark-green vegetable, leucine permeability was measured by a test using Caco-2 cells. The following materials were used as test substances. • (1) As a dark-green vegetable, crushed powder of young barley grass (containing 43% by weight of dietary fiber; manufactured by TOYO SHINYAKU Co., Ltd.) which was obtained by washing grass harvested before heading, then cutting, drying, and then crushing was used. The crushed powder of young barley grass in an amount of 24 mg was put into a tube, and after adding 1 mL of a buffer, the mixture was vortexed. Then, the supernatant was collected through centrifugation at 15,000×g for five minutes at room temperature. […] When the medium was changed before the addition of the samples, the medium outside the insert wells (the wells at the basolateral side) was replaced with 1000 μl of 10% FBS-DMEM, and the medium inside the insert wells (the wells at the luminal side) was replaced with 350 μl of 10% FBS-DMEM. • (5) The electrical resistance values were measured with Millicell ERS-2, and the wells having a value of 1000Ω or more were used. […] The leucine concentrations of the obtained concentrated liquids were measured with high performance liquid chromatography. The measurement results were applied to the equation below, and thus the leucine permeability was calculated. […]

With `CC(C)C[C@H](N)C(=O)O` [Comparative Example 1, L-leucine] the “Leucine Permeability (%)” value was 1.32%.
